The subject of the test is HBeAg (surrogate marker for cccDNA) in HepDES19 cells. As to the kind of experiment: Engineered HepDES19 primary screen assay (HBeAg ELISA). The format is cell-based, HBV. To be noted: Hepatitis B virus, 120 h, HBeAg in culture supernatant, 5 days incubation, read-out: IC50 (HepDES19 primary screen assay, inhibition of extracellular HBeAg level). From the text:
The assay was employed to screen for cccDNA inhibitors. HepDES19 is a cccDNA-producing cell line. In this cell line, HBeAg in the cell culture supernatant as surrogate marker, as HBeAg production depends on cccDNA level and activity. HepDES19 is an engineered cell line which contains a 1.1 unit length HBV genome, and pgRNA transcription from the transgene is controlled by Tetracycline (Tet). In the absence of Tet, pgRNA transcription will be induced, but HBV e antigen (HBeAg) could not be produced from this pgRNA due to very short leader sequence before the HBeAg start codon and the start codon is disrupted. Only after cccDNA is formed, the missing leader sequence and start codon mutation would be restored from the 3′-terminal redundancy of pgRNA, and then HBeAg could be synthesized. Therefore, HBeAg could be used as a surrogate marker for cccDNA (Zhou, T. et al., Antiviral Res. (2006), 72(2), 116-124; Guo, H. et al., J. Virol. (2007), 81(22), 12472-12484).
HepDES19 cells were seeded at 2×10^6 cells per T150 flask and cultured with the culture medium (Dulbecco's Modified Eagle Medium: Nutrient Mixture F-12 [DMEM-F12, Gibco Cat. 11320-82], 10% Fetal Bovine Serum [FBS, Clontech Cat. 631101], 0.1 mM Non-Essential Amino Acids Solution [NEAA, Gibco Cat. 11140-050], 50 μg/mL Penicillin-Streptomycin [PS, Invitrogen Cat. 15140-163], 500 μg/mL Geneticin [G418, Invitrogen Cat. 10131-027]) containing 3 μg/mL Tet (Sigma, Cat. 87128) for 5 days. Cells were then seeded at 4×10^6 cells per T150 in the same culture medium as described above in the absence of Tet for 8 days. Cells were then harvested and frozen at density of 2×10^6 cells per mL. For compound testing, the frozen cells were thawed and seeded into 96-well plates at a density of 6×10^4 cells per well. At 24 hours after seeding, half log serial dilutions of compounds made with Dimethyl sulfoxide (DMSO, Sigma, Cat. D2650) were further diluted with the same culture medium as described above before they were added to the cells to reach desired final compound concentrations and 1% DMSO concentration. Plates were then incubated at 37° C. for another 5 days before measurement of HBeAg level and cell viability. Intracellular HBeAg level were measured with enzyme-linked immunosorbent assay (ELISA) kit (Shanghai Kehua Diagnostic Medical Products Co., Ltd). Cell viability was assessed using Cell Counting Kit-8 (DonJindo, Cat. CK04-20). IC50 values were derived from the dose-response curve using 4 parameter logistic curve fit method.
The compounds of the present invention were tested for their capacity to inhibit extracellular HBeAg level as described herein.

With `COc1cc(OCCOCCN2CC[C@@H](C(=O)O)C2)c(-c2cc(=O)c3cccc(Cl)c3o2)cc1C` [Example 050, (3R)-1-[2-[2-[2-(8-chloro-4-oxo-chromen-2-yl)-5-methoxy-4-methyl-phenoxy]ethoxy]ethyl]pyrrolidine-3-carboxylic acid], the IC50 came to 6.93 µM. Next, `COc1cc(OCCOCCN2CC[C@H](C(=O)O)C2)c(-c2cc(=O)c3cccc(Cl)c3o2)cc1C` [Example 051, (3S)-1-[2-[2-[2-(8-chloro-4-oxo-chromen-2-yl)-5-methoxy-4-methyl-phenoxy]ethoxy]ethyl]pyrrolidine-3-carboxylic acid]: 7.86 µM; `Cc1ccc(-c2cc(=O)c3cccc(Cl)c3o2)c(OCCNC2CC(C(=O)O)C2)c1` (stereo not shown) [Example 053, 3-[2-[2-(8-chloro-4-oxo-chromen-2-yl)-5-methyl-phenoxy]ethylamino]cyclobutanecarboxylic acid]: 0.1 µM. Next, `Cc1ccc(-c2cc(=O)c3cccc(Cl)c3o2)c(OCCN2CC(C(=O)O)C2)c1` [Example 054, 1-[2-[2-(8-chloro-4-oxo-chromen-2-yl)-5-methyl-phenoxy]ethyl]azetidine-3-carboxylic acid]: 0.24 µM; `O=c1cc(-c2ccc(Br)cc2OCCN[C@H]2CC[C@@H](C(=O)O)CC2)oc2c(Cl)cccc12` [Example 055, cis-4-[2-[5-bromo-2-(8-chloro-4-oxo-chromen-2-yl)phenoxy]ethylamino]cyclohexanecarboxylic acid]: 0.98 µM.

Turning to `O=c1cc(-c2ccc(Br)cc2OCCN[C@H]2CC[C@H](C(=O)O)CC2)oc2c(Cl)cccc12` [Example 056, trans-4-[2-[5-bromo-2-(8-chloro-4-oxo-chromen-2-yl)phenoxy]ethylamino]cyclohexanecarboxylic acid], the IC50 was determined as 1 µM. Next, `CC(NCCOc1cc(C(F)(F)F)ccc1-c1cc(=O)c2cccc(Cl)c2o1)C(=O)O` (stereo not shown) [Example 057, 2-[2-[2-(8-chloro-4-oxo-chromen-2-yl)-5-(trifluoromethyl)phenoxy]ethylamino]propanoic acid]: 1.5 µM; `Cc1ccc(-c2cc(=O)c3cccc(Cl)c3o2)c(OCCNC(C)(C)C(=O)O)c1` [Example 058, 2-[2-[2-(8-chloro-4-oxo-chromen-2-yl)-5-methyl-phenoxy]ethylamino]-2-methyl-propanoic acid]: 3.41 µM; `Cc1cc(-c2cc(=O)c3cccc(Cl)c3o2)c(OCCN2CC(C(=O)O)C2)cc1Cl` [Example 061, 1-[2-[5-chloro-2-(8-chloro-4-oxo-chromen-2-yl)-4-methyl-phenoxy]ethyl]azetidine-3-carboxylic acid]: 5.71 µM. With `CC(CC(=O)O)NCCCOc1cc(C(F)(F)F)ccc1-c1cc(=O)c2cccc(Cl)c2o1` (stereo not shown) [Example 062, 3-[3-[2-(8-chloro-4-oxo-chromen-2-yl)-5-(trifluoromethyl)phenoxy]propylamino]butanoic acid] the figure was 2.02 µM; with `O=C(O)C(CC1CCCCC1)NCCCOc1cc(C(F)(F)F)ccc1-c1cc(=O)c2cccc(Cl)c2o1` (stereo not shown) [Example 063, 2-[3-[2-(8-chloro-4-oxo-chromen-2-yl)-5-(trifluoromethyl)phenoxy]propylamino]-3-cyclohexyl-propanoic acid], 4.32 µM; with `CS(=O)(=O)NC(=O)[C@@H]1CCN(CCCOc2cc(C(F)(F)F)ccc2-c2cc(=O)c3cccc(Cl)c3o2)C1` [Example 065, (3R)-1-[3-[2-(8-chloro-4-oxo-chromen-2-yl)-5-(trifluoromethyl)phenoxy]propyl]-N-methylsulfonyl-pyrrolidine-3-carboxamide], 7.21 µM.

For the compound `O=C(NS(=O)(=O)C1CC1)[C@@H]1CCN(CCCOc2cc(C(F)(F)F)ccc2-c2cc(=O)c3cccc(Cl)c3o2)C1` [Example 067, (3R)-1-[3-[2-(8-chloro-4-oxo-chromen-2-yl)-5-(trifluoromethyl)phenoxy]propyl]-N-cyclopropylsulfonyl-pyrrolidine-3-carboxamide], the IC50 worked out at 8.4 µM.
